From patent US20210252023A1, “METHODS AND COMPOSITIONS FOR TREATING AND/OR PREVENTING THE PROGRESSION AND/OR ONSET OF AGE-RELATED NEURODEGENERATION” (Enterin, Inc., priority 2018, published 2021)
Entries after “also recorded” stand apart in the source; their conditions may differ.

Tests used:
[1] = Dose response of delay in growth of BDF1 mice (Example 1, FIG. 2); format: in vivo, B6D2F1 (BDF1) mice; settings: 5 and 10 mg/kg IV; data not shown
Experimental: An experiment was conducted to explore the dose response to a delay in growth of B6D2F1 (BDF1) mice to Aminsoterol 1436. 30 day old male BDF1 mice received either vehicle or Aminosterol 1436 intraveneously (IV) at 5 mg/kg or 10 mg/kg (n=15 for each treatment arm) every 3 days until 51 days of age. The Aminosterol 1436 was administered as a aqueous solution in water. BDF1 mice are available from Charles River Laboratories. The animals were fed standard lab chow, offered ad libitum. The animals were weighed and body length measured every 5 days. […] However, while the control animals reached maturity at 120 days, the animals that received 5 mg/kg of Aminosterol 1436 reached maturity at 150 days, corresponding to a 25% delay in reaching maturity, as measured by end weight. […] Most importantly, both treated and untreated animals reached normal adult dimensions, albeit at different rates.

[2] = Brain distribution of radioactive Aminosterol 1436 after IV or ICV administration (FIG. 1); format: in vivo; settings: radioactive compound, rat, peripheral vein (IV) or 3rd ventricle (ICV)
Text: The exact mechanism by which Aminosterol 1436 achieves its effect on preventing, delaying onset, and/or treating neurodegeneration, delaying maturity, retarding aging, and increasing potential lifespan is not known. However, without being bound by theory, Applicant theorizes that the effect of Aminosterol 1436 is likely in part due to the drug's effects on the hypothalamus within the brain of the animal.

[3] = Neuroregeneration in treated adult mouse (cell number in brain areas); format: in vivo
Text: The hypothalamus is of particular interest because it happens to be the site of localization of Aminosterol 1436 in the brain.

HIV = settings: tissue culture; U.S. Pat. No. 5,763,430; cited from earlier work

CC(C)[C@@H](CC[C@@H](C)[C@H]1CC[C@H]2[C@@H]3[C@H](O)C[C@H]4C[C@@H](NCCCNCCCCNCCCN)CC[C@]4(C)[C@H]3CC[C@]12C)OS(=O)(=O)O [Aminosterol 1436, trodusquemine]
linear growth [1]: slowed to a corresponding degree | accumulation in the brain [2]: accumulation of Aminosterol 1436 within the centers of the brain that control growth, maturation, and senescence; also recorded: accumulates within the centers of the brain that control growth, maturation and senescence | neuroregeneration (number of cells in subependymal zone, olfactory bulb, hypothalamus, thalamus) [3]: stimulates neuroregeneration | antiviral activity against HIV (HIV): exhibits antiviral activity against HIV in tissue culture
